Biological target: T1, α-L-iduronidase (IdA; EC 3.2.1.76) (Homo sapiens, UniProt P35475)
T1 construct: Incubation with IdA present in DBS leads to enzymatic release of the iduronyl group; from tissue; host or cells: dried blood spot (DBS) extract, 3-mm punch
T1 sequence (P35475 28-653): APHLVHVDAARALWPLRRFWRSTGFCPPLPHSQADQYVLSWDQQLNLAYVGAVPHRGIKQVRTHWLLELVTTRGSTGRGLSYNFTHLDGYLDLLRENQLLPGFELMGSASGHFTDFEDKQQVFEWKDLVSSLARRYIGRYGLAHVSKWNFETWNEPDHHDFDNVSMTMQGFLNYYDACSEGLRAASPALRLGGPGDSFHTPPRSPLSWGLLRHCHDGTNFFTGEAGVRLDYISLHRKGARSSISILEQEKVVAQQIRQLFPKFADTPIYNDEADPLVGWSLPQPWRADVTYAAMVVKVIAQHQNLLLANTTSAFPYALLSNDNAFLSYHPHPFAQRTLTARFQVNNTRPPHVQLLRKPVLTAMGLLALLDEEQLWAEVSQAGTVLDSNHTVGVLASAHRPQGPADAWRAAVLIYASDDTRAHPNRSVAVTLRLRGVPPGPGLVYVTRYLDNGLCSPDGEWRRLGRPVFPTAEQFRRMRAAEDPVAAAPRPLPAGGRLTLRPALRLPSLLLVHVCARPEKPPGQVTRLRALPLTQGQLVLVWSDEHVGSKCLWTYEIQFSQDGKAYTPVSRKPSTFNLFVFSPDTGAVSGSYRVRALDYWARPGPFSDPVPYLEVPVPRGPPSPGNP
Experiment: ESI-MSMS assay of α-L-iduronidase enzymatic activity in dried blood spots (IdA-P formed as a function of IdA-S concentration)
Type: biochemical
Settings: IdA in DBS extract; 37° C., 20 h; IdA-S 0 to 0.67 mmol/L; fit to Michaelis-Menten equation (FIG. 7)
Experimental: A representative method of the invention for assaying α-L-iduronidase enzymatic activity by tandem mass spectrometry is described in Example 3. […] The amount of IdA-P increases linearly with incubation time from 0 to 30 h (FIG. 6); 20 h was chosen as the standard incubation time for the assay described in Example 3. The amount of IdA-P formed at 20 h increased in a hyperbolic fashion as the concentration of IdA-S increased from 0 to 0.67 mmol/L, and Km was determined to be 0.2 mmol/L (FIG. 7). An IdA-S concentration of 0.5 mmol/L was chosen in order to be under saturation conditions. The amount of IdA-P increases with the surface area of added DBS (FIG. 8), with a plateau reached at higher blood amounts (presumably due to the presence of endogenous inhibitors in the DBS). In one embodiment, the method uses a 3-mm-DBS punch.
A single 3-mm diameter DBS (containing ˜3.6 μL of blood) was obtained with a leather punch and was placed in a 1-mL Eppendorf tube. Extraction buffer [160 μL of 0.1 mol/L sodium formate pH 3.4 containing 75 μmol/L D-saccharic acid 1,4-lactone (Sigma); storage at −20° C.] was added to the tube. […]
Extraction of IdA-P and IdA-IS from the enzymatic reaction and blank was performed by addition of 250 μL of ethyl acetate. […] The sample was analyzed within the first 45 seconds of infusion, and after 1 min, the MSMS signal has returned to the background level. […]

Q: How did the Km turn out when `CC(C)(C)OC(=O)NCCCCNC(=O)Cc1cc(=O)oc2cc(O[C@@H]3O[C@@H](C(=O)O)[C@@H](O)[C@H](O)[C@H]3O)ccc12` [IdA-S, (N-[4″-(tert-butoxycarbonylamino)-butyl]) 7-O-(α-L-idopyranosyluronic acid)coumarin-4-acetamide] was run?
A: 200 µM

Reference: patent US9790536B2, “Methods for assaying alpha-L-iduronidase enzymatic activity” (University of Washington, priority 2007, dated 2017)
